Measured values reported in patent US20240140933A1, “OXOINDOLINE COMPOUND FOR THE TREATMENT OF INFLAMMATORY DISEASES OR CANCER” (Hoffmann-La Roche Inc., priority 2021, published 2024).

target: PDHK1 (Homo sapiens (Human), UniProt Q15118); experiment: PDHK1 enzymatic assay (AlphaScreen, phosphorylation of PDHE1 S293); assay type: biochemical; details: 1 nM PDHK1, 25 nM PDHE1, 20 μM ATP, 30° C. for 45 minutes
Source text: Pyruvate dehydrogenase complex (PDHc) is an enzyme that catalyzes the reaction of pyruvate and a lipoamide to give the acetylated dihydrolipoamide and carbon dioxide. PDHc has three subunits E1, E2 and E3. E1 has 3 serine phosphorylation sites S293, S232, S300. If E1 was phosphorylated, PDH will be inactivated. PDHK can phosphorylate PDH protein (also named PDHE1) in PDH complex (PDC) to inactivate it.

Sequence of PDHK1 (Q15118 29-436): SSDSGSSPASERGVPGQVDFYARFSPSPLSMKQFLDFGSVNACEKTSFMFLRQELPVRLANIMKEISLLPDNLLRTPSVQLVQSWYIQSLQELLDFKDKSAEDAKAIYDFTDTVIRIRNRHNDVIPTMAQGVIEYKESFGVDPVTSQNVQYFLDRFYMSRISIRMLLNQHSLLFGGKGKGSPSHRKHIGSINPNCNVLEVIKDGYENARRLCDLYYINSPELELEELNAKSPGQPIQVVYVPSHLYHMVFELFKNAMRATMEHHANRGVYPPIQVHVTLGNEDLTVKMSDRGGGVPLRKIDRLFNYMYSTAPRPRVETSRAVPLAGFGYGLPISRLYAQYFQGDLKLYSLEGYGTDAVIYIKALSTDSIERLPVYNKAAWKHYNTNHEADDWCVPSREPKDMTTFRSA

SMILES | Enzymatic IC50 against PDHK1 [µg/mL]
CCNc1cc(F)cc2c1NC(=O)C2(C)N1CCC[C@@H](NC(=O)c2ccc(S(=O)(=O)F)cc2)C1 (stereo partly drawn) [Example 43, 4-[[(3R)-1-[7-(ethylamino)-5-fluoro-3-methyl-2-oxo-indolin-3-yl]-3-piperidyl]carbamoyl]benzenesulfonyl fluoride] | 0.016
CCNc1cc(F)cc2c1NC(=O)C2(C)N1CCC[C@@H](N(C)c2ccc(C(N)=O)nc2)C1 (stereo partly drawn) [Example 24, 5-[[(3R)-1-[7-(ethylamino)-5-fluoro-3-methyl-2-oxo-indolin-3-yl]-3-piperidyl]-methyl-amino]pyridine-2-carboxamide] | 0.016
CCNc1cc(F)cc2c1NC(=O)C2(C)N1CCC[C@@H](Nc2ccc(C(=O)CO)cc2)C1 (stereo partly drawn) [Example 19, 7-(ethylamino)-5-fluoro-3-[(3R)-3-[4-(2-hydroxyacetyl)anilino]-1-piperidyl]-3-methyl-indolin-2-one] | 0.016
CCNc1cc(F)cc2c1NC(=O)C2(CC)N1CCC[C@@H](N(C(N)=O)c2ccc(C#N)nc2)C1 (stereo partly drawn) [Example 26, 1-(6-cyano-3-pyridyl)-1-[(3R)-1-[3-ethyl-7-(ethylamino)-5-fluoro-2-oxo-indolin-3-yl]-3-piperidyl]urea] | 0.067
CCNc1cc(F)cc2c1NC(=O)C2(C)N1CCC[C@@H](Nc2cc(C)c(S(=O)(=O)F)cn2)C1 (stereo partly drawn) [Example 30, 4-methyl-6-[[(3R)-1-[7-(ethylamino)-5-fluoro-3-methyl-2-oxo-indolin-3-yl]-3-piperidyl]amino]pyridine-3-sulfonyl fluoride] | 0.065
CCNc1cc(F)cc2c1NC(=O)C2(C)N1CCC[C@@H](Cc2ccc(C(N)=O)cc2)C1 (stereo partly drawn) [Example 6, 4-[[(3S)-1-[7-(ethylamino)-5-fluoro-3-methyl-2-oxo-indolin-3-yl]-3-piperidyl]methyl]benzamide] | 0.143
CCNc1cc(F)cc2c1NC(=O)C2(C)N1CCC[C@@H](Nc2cccc(S(=O)(=O)F)c2)C1 (stereo partly drawn) [Example 27, 3-[[(3R)-1-[7-(ethylamino)-5-fluoro-3-methyl-2-oxo-indolin-3-yl]-3-piperidyl]amino]benzenesulfonyl fluoride] | 0.086
CCNc1cc(F)cc2c1NC(=O)C2(C)N1CCC[C@@H](NC(=O)c2cccc(OS(=O)(=O)F)c2)C1 (stereo partly drawn) [Example 44, 7-(ethylamino)-5-fluoro-3-[(3R)-3-[(3-fluorosulfonyloxybenzoyl)amino]-1-piperidyl]-3-methyl-2-oxo-indoline] | 0.022
CCNc1cc(F)cc2c1NC(=O)C2(C)N1CCC[C@@H](Oc2ccc(O)c(C=O)c2)C1 (stereo partly drawn) [Example 2, 5-[[(3R)-1-[7-(ethylamino)-5-fluoro-3-methyl-2-oxo-indolin-3-yl]-3-piperidyl]oxy]-2-hydroxy-benzaldehyde] | 0.015
CCNc1cc(F)cc2c1NC(=O)C2(C)N1CCC[C@@H](Nc2ccc(C#N)c(O)c2)C1 (stereo partly drawn) [Example 9, 4-[[(3R)-1-[7-(ethylamino)-5-fluoro-3-methyl-2-oxo-indolin-3-yl]-3-piperidyl]amino]-2-hydroxy-benzonitrile] | 0.015
CCNc1cc(F)cc2c1NC(=O)[C@]2(C)N1CCC[C@@H](Oc2ccc(S(=O)(=O)F)cc2)C1 [Example 3A, 4-[[(3R)-1-[(3R)-7-(ethylamino)-5-fluoro-3-methyl-2-oxo-indolin-3-yl]-3-piperidyl]oxy]benzenesulfonyl fluoride] | 0.036
CCNc1cc(F)cc2c1NC(=O)C2(C)N1CCC[C@@H](NC(=O)C2CCS(=O)(=O)CC2)C1 (stereo partly drawn) [Example 36, N-[(3R)-1-[7-(ethylamino)-5-fluoro-3-methyl-2-oxo-indolin-3-yl]-3-piperidyl]-1,1-dioxo-thiane-4-carboxamide] | 0.047
CCNc1cc(F)cc2c1NC(=O)C2(C)N1CCC[C@@H](Nc2ccc(S(=O)(=O)F)cn2)C1 (stereo partly drawn) [Example 29, 6-[[(3R)-1-[7-(ethylamino)-5-fluoro-3-methyl-2-oxo-indolin-3-yl]-3-piperidyl]amino]pyridine-3-sulfonyl fluoride] | 0.035
CCNc1cc(F)cc2c1NC(=O)C2(C)N1CCC[C@@H](Nc2cnc(C#N)cn2)C1 (stereo partly drawn) [Example 15, 5-[[(3R)-1-[7-(ethylamino)-5-fluoro-3-methyl-2-oxo-indolin-3-yl]-3-piperidyl]amino]pyrazine-2-carbonitrile] | 0.060

Next, values leading:

Enzymatic IC50 against PDHK1 [µg/mL] | SMILES
0.005 | CCNc1cc(F)cc2c1NC(=O)C2(C)N1CC[C@H](c2ccccc2Oc2ccc(C(=O)O)cc2)[C@@H](NC(C)=O)C1 (stereo partly drawn) [Example 56, 4-[2-[(3R,4R)-3-acetamido-1-[7-(ethylamino)-5-fluoro-3-methyl-2-oxo-indolin-3-yl]-4-piperidyl]phenoxy]benzoic acid]
0.007 | CCNc1cc(F)cc2c1NC(=O)C2(CC)N1CC[C@H](F)[C@@H](Nc2ccc(C#N)nc2)C1 (stereo partly drawn) [Example 49, 5-[[(3S,4S)-1-[3-ethyl-7-(ethylamino)-5-fluoro-2-oxo-indolin-3-yl]-4-fluoro-3-piperidyl]amino]pyridine-2-carbonitrile]
0.037 | CCNc1cc(F)cc2c1NC(=O)C2(C)N1CC[C@H](c2ccccc2)[C@@H](Nc2ccc(C#N)nc2)C1 (stereo partly drawn) [Example 55, 5-[[(3R,4R)-1-[7-(ethylamino)-5-fluoro-3-methyl-2-oxo-indolin-3-yl]-4-phenyl-3-piperidyl]amino]pyridine-2-carbonitrile]
0.017 | CCNc1cc(F)cc2c1NC(=O)C2(C)N1CCC[C@@H](NC(=O)C2CC3(C2)CN(C(=O)CCl)C3)C1 (stereo partly drawn) [Example 40, 2-(2-chloroacetyl)-N-[(3R)-1-[7-(ethylamino)-5-fluoro-3-methyl-2-oxo-indolin-3-yl]-3-piperidyl]-2-azaspiro[3.3]heptane-6-carboxamide]
0.020 | CCNc1cc(F)cc2c1NC(=O)C2(C)N1CC[C@H](c2ccccc2)[C@@H](NC(C)=O)C1 (stereo partly drawn) [Example 52, N-[(3R,4R)-1-[7-(ethylamino)-5-fluoro-3-methyl-2-oxo-indolin-3-yl]-4-phenyl-3-piperidyl]acetamide]
0.015 | C=CS(=O)(=O)N[C@H]1CN(C2(C)C(=O)Nc3c(NCC)cc(F)cc32)CC[C@@H]1c1ccccc1 (stereo partly drawn) [Example 53, N-[(3R,4R)-1-[7-(ethylamino)-5-fluoro-3-methyl-2-oxo-indolin-3-yl]-4-phenyl-3-piperidyl]ethenesulfonamide]
0.032 | C=CC(=O)N1CC2(CC(C(=O)N[C@@H]3CCCN(C4(C)C(=O)Nc5c(NCC)cc(F)cc54)C3)C2)C1 (stereo partly drawn) [Example 41, N-[(3R)-1-[7-(ethylamino)-5-fluoro-3-methyl-2-oxo-indolin-3-yl]-3-piperidyl]-2-prop-2-enoyl-2-azaspiro[3.3]heptane-6-carboxamide]
0.012 | CCNc1cc(F)cc2c1NC(=O)C2(C)N1C[C@@H](F)C[C@@H](Nc2ccc(C#N)nc2)C1 (stereo partly drawn) [Example 46, 5-[[(3R,5S)-1-[7-(ethylamino)-5-fluoro-3-methyl-2-oxo-indolin-3-yl]-5-fluoro-3-piperidyl]amino]pyridine-2-carbonitrile]
0.009 | CCNc1cc(F)cc2c1NC(=O)C2(C)N1CC[C@H](c2ccccc2)[C@@H](NC(=O)C2CN(C#N)C2)C1 (stereo partly drawn) [Example 54, 1-cyano-N-[(3R,4R)-1-[7-(ethylamino)-5-fluoro-3-methyl-2-oxo-indolin-3-yl]-4-phenyl-3-piperidyl]azetidine-3-carboxamide]
0.017 | CCNc1cc(F)cc2c1NC(=O)C2(C)N1CC[C@@H](O)[C@@H](Nc2ccc(C#N)nc2)C1 (stereo partly drawn) [Example 51, 5-[[(3S,4R)-1-[7-(ethylamino)-5-fluoro-3-methyl-2-oxo-indolin-3-yl]-4-hydroxy-3-piperidyl]amino]pyridine-2-carbonitrile]
0.014 | CCNc1cc(F)cc2c1NC(=O)C2(C)N1CC[C@H](O)[C@@H](Nc2ccc(C#N)nc2)C1 (stereo partly drawn) [Example 50, 5-[[(3S,4S)-1-[7-(ethylamino)-5-fluoro-3-methyl-2-oxo-indolin-3-yl]-4-hydroxy-3-piperidyl]amino]pyridine-2-carbonitrile]
0.009 | CCNc1cc(F)cc2c1NC(=O)[C@]2(C)N1CC[C@H](c2ccccc2)[C@H](C(N)=O)C1 [Example 63A, (3S,4S)-1-[(3R)-7-(ethylamino)-5-fluoro-3-methyl-2-oxo-indolin-3-yl]-4-phenyl-piperidine-3-carboxamide]

same assay, conditions: 1 nM PDHK1, 25 nM PDHE1, 20 μM ATP, 30° C. for 45 minutes; read-out: Enzymatic IC50 against PDHK1 (converted)

IC50 [µM] | SMILES
0.0171 | CCNc1cc(F)cc2c1NC(=O)[C@@]2(C)N1CC[C@@H](c2ccccc2)[C@@H](C(N)=O)C1 [Example 59B, (3R,4R)-1-[(3S)-7-(ethylamino)-5-fluoro-3-methyl-2-oxo-indolin-3-yl]-4-phenyl-piperidine-3-carboxamide]
0.0759 | CCNc1cc(F)cc2c1NC(=O)[C@@]2(C)N1CC[C@@H](c2ccccc2)[C@@H](C(=O)NCc2ccccc2)C1 [Example 62B, (3R,4R)-N-benzyl-1-[(3S)-7-(ethylamino)-5-fluoro-3-methyl-2-oxo-indolin-3-yl]-4-phenyl-piperidine-3-carboxamide]
0.0212 | CCNc1cc(F)cc2c1NC(=O)[C@@]2(C)N1CC[C@@H](c2ccccc2)[C@@H](C(=O)NC)C1 [Example 60B, (3R,4R)-1-[(3S)-7-(ethylamino)-5-fluoro-3-methyl-2-oxo-indolin-3-yl]-N-methyl-4-phenyl-piperidine-3-carboxamide]
0.0152 | CCNc1cc(F)cc2c1NC(=O)[C@@]2(C)N1CCC[C@@H](Oc2ccc(C(=O)O)c(Cl)c2)C1 [Example 1B, 2-chloro-4-[[(3R)-1-[(3S)-7-(ethylamino)-5-fluoro-3-methyl-2-oxo-indolin-3-yl]-3-piperidyl]oxy]benzoic acid]
